Legend:
[1] = Cytotoxicity (CC50) in RAW cells; conditions: mouse
mouse norovirus = assay: Mouse Norovirus (MNV) assay in RAW cells; conditions: Norovirus, in Mus musculus, read-out: MNV Mean EC50, RAW cells
human norovirus = assay: Efficacy of Compound 1 Against Human Norovirus (viral titer); assay type: cell-based; conditions: cells pretreated with 25 μM compound for two hours; duplicate (FIGS. 4-6)
Experimental: The efficacy of compound 1 for inhibiting norovirus was compared to DMSO (as a control), compound 2, and 2′-C-methylcytidine triphosphate (2′CmeC TP). Cells were pretreated with 25 μM of experimental compound for two hours. Virus inoculum was added for two hours, and unbound virus washed off and fresh media and fresh experimental compound was added.

| Compound | CC50 [1] [µM] | EC50 (mouse norovirus) [µM] | viral titer (human norovirus) |
| --- | --- | --- | --- |
| C[C@@]1(O)[C@H](O)[C@@H](CO)O[C@H]1n1ccc(N)nc1=O [2′-C-Methyl Cytidine, reference compound] | 34.3 | 3.2 |  |
| C[C@@]1(O)[C@H](O)[C@@H](COP(=O)(O)OP(=O)(O)OP(=O)(O)O)O[C@H]1n1ccc(N)nc1=O [2′CmeC TP, 2′-C-methylcytidine triphosphate, reference compound] |  |  | increased almost two orders of magnitude |
